Results published in US5775329A, “Method and compounds for diagnosing coronary artery disease” (Gensia, Inc., priority 1995, dated 1998).
“Also recorded” adds a separate entry of the source. Where a name gives a salt, the structure may show the parent alone.

Columns and labels:
[1] = target: T1, β1-adrenoreceptor (Cavia porcellus, UniProt H0W3H1); experiment: In vitro bioassay for β1-adrenergic activity (atrial rate); assay type: biochemical; details: guinea pig atria, 37° C., pH=7.4, approximately four atrial preparations per compound
T1 construct: the hearts were excised and placed in ice-cold oxygenated Krebs Ringer buffer; tissue Charles River Laboratories (animals); host or cells: guinea pig atria (right and left, paired)
T1 sequence (H0W3H1 1-470): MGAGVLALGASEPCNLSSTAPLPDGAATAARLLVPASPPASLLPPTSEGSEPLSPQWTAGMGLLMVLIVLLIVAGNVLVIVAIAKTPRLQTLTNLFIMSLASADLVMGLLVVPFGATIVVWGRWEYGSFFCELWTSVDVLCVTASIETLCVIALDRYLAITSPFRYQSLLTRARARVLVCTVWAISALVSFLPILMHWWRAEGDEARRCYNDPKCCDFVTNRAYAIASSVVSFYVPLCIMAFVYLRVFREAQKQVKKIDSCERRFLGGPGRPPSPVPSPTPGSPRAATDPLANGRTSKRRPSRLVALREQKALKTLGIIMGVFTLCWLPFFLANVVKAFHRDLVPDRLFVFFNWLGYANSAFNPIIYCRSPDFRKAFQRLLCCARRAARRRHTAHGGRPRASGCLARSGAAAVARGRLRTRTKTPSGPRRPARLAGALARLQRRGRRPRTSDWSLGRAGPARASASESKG
Procedure: (§1) In Vitro Bioassays for β1 -, β2 - and α-Adrenoreceptor Activity
(§2) Functional evaluation of β1 -, β2 - and α-adrenoreceptor activity was performed using in vitro preparations of guinea pig atria, guinea pig trachea, and rabbit aorta, respectively (Young, et. al, Drug Dev. Res. 1994, 32, 19-28).
For the atrial assay of β1 -adrenergic activity, male Hartley guinea pigs (350-500 g; Charles River Laboratories, Wilmington, Mass.) were sacrificed by decapitation and the hearts were excised and placed in ice-cold oxygenated Krebs Ringer buffer. The atria were separated from the ventricles, leaving the right and left atria attached as a pair. A suture was placed at the apex of each atrial appendage for securing the tissue within the organ bath. The water-jacketed 25-ml organ baths were maintained at 37° C. and filled with Krebs Ringer solution aerated with 95% O2 and 5% CO2. The atrial pairs were equilibrated for at least 20 min after application of 1 g resting tension. β1 -adrenergic activity was assessed using atrial rate (beats per min) and amplitude of contraction (g tension) which were monitored at 1 and 5 min after dosing. Concentration-response curves (10^-11 -10^-4 M) were obtained by cumulative addition of drug to the bath. Following the completion of the dose response curves, isoproterenol was added to assess maximal response of each atrial preparation. EC50 values were calculated from the rate results of approximately four atrial preparations per compound.
(§3) In all experiments, tension was measured by isometric force transducers (52-9529, Harvard Apparatus, Natick, Mass.) coupled to an ink-writing recorder (Gould, Cleveland Ohio). The Krebs Ringer solution contained the following ingredients (mM): NaCl (118.1), NaHCO3 (25.0), D-glucose (11.1), KH2 PO4 (1.2), KCl (4.8), MgSO4 (1.2), CaCl2 (2.5), pH=7.4.

[2] = target: α-adrenoreceptor; experiment: In vitro bioassay for α-adrenergic activity (contraction of aortic rings); assay type: biochemical; details: rabbit aortic rings, propranolol pretreated, 37° C., pH=7.4, read-out: α (aorta)
Procedure: as §1, §2
For evaluation of α-adrenergic activity, male New Zealand white rabbits (2.5 kg) (Simunek Rabbitry, Vista, Calif.) were sacrificed by carbon dioxide inhalation and the thoracic aorta was quickly excised and placed in Krebs Ringer solution. The aorta was cut into 3-mm rings which were subsequently suspended on hooks in organ baths. The 2.5-ml water-jacketed baths were maintained at 37° C. and filled with Krebs Ringer solution aerated with 95% O2 and 5% CO2. The vascular rings were equilibrated for 1 h following the application of a resting tension of 4 g, during which time the buffer was changed at 15-min intervals. All rings were pretreated with propranolol ([…]) 10 min prior to addition of test compounds. Concentration-response curves were obtained by cumulative addition of compound to the organ bath, the concentration being increased only after maximal response to the preceding concentration was attained. After the final response was attained for each test drug, norepinephrine ([…]) was added to assess maximal contraction. Responses are expressed as a percent of the maximal contraction by norepinephrine.
as §3

[3] = test system: heart rate (chronotropic response); experiment: Pharmacodynamics in conscious dogs during i.v. administration (chronotropic response and offset); assay type: in vivo, dog
Procedure: […] The T50 s were measured from end of infusion.
Pharmacodynamics in conscious dogs during i.v. administration
Dogs were trained to lie quietly on a table. Novel catecholamine compounds were administered via a venous catheter acutely placed in a leg vein. […] Heart rate was recorded by computer from ECG limb leads at 5 second intervals throughout the experiment. […]

[4] = test system: heart rate; experiment: Pharmacodynamics in conscious dogs during transdermal iontophoretic administration; assay type: in vivo, dog; details: 10 min
Procedure: Pharmacodynamics in conscious dogs during transdermal iontophoretic administration
Dogs were trained to lie quietly on a table. Heart rate was monitored by ECG limb leads. Novel catecholamines were administered from a gel-filled electrode placed on the surface of the skin. A second electrode was placed on the skin to complete the electrical circuit. All compounds were delivered using a current of 0.25 mA for a period of 10 minutes. Heart rate was monitored by the ECG, and the T50 of the compound was measured as the time after termination of current required for heart rate to return 50% toward baseline rate. A "delay" time was also measured as the time required for heart rate to begin to fall, following termination of current.

[5] = target: T2, β2-adrenoreceptor (Cavia porcellus, UniProt Q8K4Z4); experiment: In vitro bioassay for β2-adrenergic activity (relaxation of precontracted tracheal rings); assay type: biochemical; details: guinea pig tracheal rings precontracted with carbachol, 37° C., pH=7.4, read-out: β2 (trachea)
T2 construct: the trachea was gently excised and placed in ice-cold aerated Krebs Ringer solution; from tissue; host or cells: guinea pig tracheal rings
T2 sequence (Q8K4Z4 whole entry): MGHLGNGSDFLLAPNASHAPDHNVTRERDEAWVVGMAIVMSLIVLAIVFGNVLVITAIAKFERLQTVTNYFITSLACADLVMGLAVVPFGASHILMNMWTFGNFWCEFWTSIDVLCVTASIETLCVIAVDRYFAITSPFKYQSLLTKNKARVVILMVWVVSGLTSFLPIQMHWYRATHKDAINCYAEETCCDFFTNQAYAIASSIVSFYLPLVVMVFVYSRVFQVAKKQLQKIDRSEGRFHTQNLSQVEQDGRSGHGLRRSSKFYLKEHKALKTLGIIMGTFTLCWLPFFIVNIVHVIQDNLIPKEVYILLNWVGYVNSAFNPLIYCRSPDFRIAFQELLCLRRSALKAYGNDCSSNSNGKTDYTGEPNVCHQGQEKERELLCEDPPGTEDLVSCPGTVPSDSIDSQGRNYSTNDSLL
Procedure: as §1, §2
For the tracheal assay of β2 -adrenergic activity, male Hartley guinea pigs (350-500 g) were sacrificed by carbon dioxide inhalation and the trachea was gently excised and placed in ice-cold aerated Krebs Ringer solution. β2 -adrenergic activity was assessed as the relaxation of rings following precontraction with carbachol. The trachea were cut into transverse rings containing two cartilage segments, and sutures were tied onto the cartilage on either side of the band of smooth muscle of each ring. The sutures were used to mount the individual rings in a 2.5-ml organ bath and to measure tension with an isometric force transducer. The water-jacketed organ baths maintained the preparation at 37° C. and were filled with Krebs Ringer solution aerated with 95% O2 and 5% CO2. The tracheal rings were equilibrated for 1 h following the application of 0.5 g resting tension. In some cases, equilibrated rings were then treated with the α2 -antagonist rauwolscine ([…]) and the β1 -antagonist atenolol ([…]) prior to precontraction with carbachol ([…]). Precontracted rings used as controls received treatments of saline only. Concentration-response curves were obtained by cumulative addition of drug to the organ bath, the concentration being increased only after the maximal relaxation to the preceding concentration was attained. After the final response was attained, isoproterenol ([…]) was added to assess maximal response for each preparation.
as §3

[6] = Table I, i.v., measured from end of infusion at highest dose 100 ng/kg/min
[7] = Table I, stable increase over baseline at highest dose (100 ng/kg/min i.v.), ascending doses
[8] = iontophoresis 0.25 mA, concentration (mM): isoproterenol 2.5, arbutamine 20, Ex 4 2, Ex 1 3, Ex 11 12, Ex 9 8, Ex 6 8
[9] = Example 13, i.v. stepwise ascending doses up to 100 ng/kg/min
[10] = Example 13, i.v., from termination of infusion (100 ng/kg/min) to 50% fall in heart rate towards baseline
[11] = Example 13, i.v., dose reached 300 ng/kg/min

Structure (SMILES) | EC50 [1] [nM] | EC50 [2] [nM] | EC50 [5] [nM] | T50 [3, 6] [min] | Δ Heart Rate [3, 7] [beats/min] | Delay (time required for heart rate to begin to fall following termination of current) [4, 8] [min] | T50 (time after termination of current for heart rate to return 50% toward baseline) [4, 8] [min] | Δ Heart Rate [4, 8] [beats/min] | Δ Heart Rate [3, 9] | T50 [3, 10] [min] | Δ Heart Rate [4] [beats/min] | T50 [3, 11] [min] | Δ Heart Rate [3, 11] | offset time / T50 (in words) ([3]; i.v., compared with isoproterenol and arbutamine) | T50 (time required for the chronotropic response to decrease by 50%) ([3]; oxalate salt, dog studies) [min]
CC(CCC[S+](C)[O-])NC[C@H](O)c1ccc(O)c(O)c1 (stereo partly drawn) [*, 1 (R)(3,4-dihyroxyphenyl)-2-(1-methyl-4-methylsulfinylbutylamino) ethano oxalate salt] | 1.4 ± 0.3 | 7830 ± 239 | – | – | – | – | – | – | – | – | – | – | – | – | –
Oc1ccc(CCCCNC[C@H](O)c2ccc(O)c(O)c2)cc1 [Arbutamine, reference compound] | – | – | – | 7.2 ± 1.1 | 84 ± 9 | 2.3 ± 1.4 | 24.8 ± 2.7 | 84 ± 5 | – | – | – | – | – | – | –
N#CCCCNC[C@H](O)c1ccc(O)c(O)c1 [Example 1, 1-(R)-(3,4-dihydroxyphenyl)-2-(3-cyanopropylamino)ethanol] | 4.6 ± 0.7 | 7500 ± 2840 | 4.7 ± 1.2 | – | – | 1.9 ± 0.5 | 12.4 ± 1.3 | – | 109 ± 5 | 6.9 ± 0.6 | 77 ± 1.3 | – | – | – | –
CC(CCCC#N)NC[C@H](O)c1ccc(O)c(O)c1 (stereo partly drawn) [Example 2, 1-(R)-(3,4-dihydroxyphenyl)-2-(1-methyl-4-cyanobutylamino)ethanol] | 3.4 ± 0.4 | 15600 ± 8220 | 2.7 ± 0.5 | – | – | – | – | – | – | – | – | – | – | – | –
COCCC(C)NC[C@H](O)c1ccc(O)c(O)c1 (stereo partly drawn) [Example 4, 1-(R)-(3,4-dihydroxyphenyl)-2-(1-methyl-3-methoxypropylamino)ethanol] | 1.1 ± 0.2 | > 100000 | 9.9 ± 1.3 | – | – | 0.3 ± 0.1 | 9.1 ± 0.8 | 79 ± 8 | 98 ± 8 | 5.0 ± 0.7 | – | – | – | – | –
COCCCC(C)NC[C@H](O)c1ccc(O)c(O)c1 (stereo partly drawn) [Example 5, 1-(R)-(3,4-dihydroxyphenyl)-2-(1-methyl-4-methoxybutylamino)ethanol] | 1.5 ± 0.4 | 51800 ± 19200 | 8.2 ± 1.6 | – | – | – | – | – | – | – | – | – | – | – | –
CSCCCCNC[C@H](O)c1ccc(O)c(O)c1 [Example 9, 1-(R)-(3,4-dihydroxyphenyl)-2-(4-methylthiobutylamino)ethanol] | 2.9 ± 0.6 | 1400 ± 82 | 20 ± 3.4 | – | – | 0.6 ± 0.6 | 9.3 ± 0.5 | 82 ± 9 | – | – | – | 3.6 ± 0.34 | 93 ± 6 | – | –
CC(C)NCC(O)c1ccc(O)c(O)c1 (centres unmarked) [Isoproterenol, reference compound] | – | – | – | 5.5 ± 1.0 | 103 ± 12 | 1.2 ± 0.5 | 12.2 ± 1.9 | 80 ± 11 | – | – | – | – | – | – | –

More lines, in order of falling EC50 [1], values ahead:

EC50 [1] [nM] | EC50 [2] [nM] | EC50 [5] [nM] | Structure (SMILES) | T50 [3, 6] [min] | Δ Heart Rate [3, 7] [beats/min] | Delay (time required for heart rate to begin to fall following termination of current) [4, 8] [min] | T50 (time after termination of current for heart rate to return 50% toward baseline) [4, 8] [min] | Δ Heart Rate [4, 8] [beats/min] | Δ Heart Rate [3, 9] | T50 [3, 10] [min] | Δ Heart Rate [4] [beats/min] | T50 [3, 11] [min] | Δ Heart Rate [3, 11] | offset time / T50 (in words) ([3]; i.v., compared with isoproterenol and arbutamine) | T50 (time required for the chronotropic response to decrease by 50%) ([3]; oxalate salt, dog studies) [min]
19 ± 5.4 | 61300 ± 3820 | 21 ± 3 | COCCCNC[C@H](O)c1ccc(O)c(O)c1 [Example 3, 1-(R)-(3,4-dihydroxyphenyl)-2-(3-methoxy-propylamino)ethanol] | – | – | – | – | – | – | – | – | – | – | – | –
14.9 ± 3.6 | > 10000 | 140 ± 35.3 | C[S+]([O-])CCCNC[C@H](O)c1ccc(O)c(O)c1 (stereo partly drawn) [Example 6, 1-(R)-(3,4-dihydroxyphenyl)-2-(3-methylsulfinylpropylamino)ethanol] | – | – | 0.9 ± 0.5 | 13.6 ± 2.3 | 93 ± 6 | 93 ± 3 | 5.4 ± 1.3 | – | – | – | – | –
13.3 ± 1 | 5500 ± 456 | 245 ± 84.7 | C[S+]([O-])CCCCNC[C@H](O)c1ccc(O)c(O)c1 (stereo partly drawn) [Example 7, 1-(R)-(3,4-dihydroxyphenyl)-2-(4-methylsulfinylbutylamino)ethanol] | – | – | – | – | – | – | – | – | – | – | – | –
9.7 ± 2 | 88300 ± 5660 | 16 ± 1.2 | CSCCCNC[C@H](O)c1ccc(O)c(O)c1 [Example 11, 1-(R)-(3,4-dihydroxyphenyl)-2-(3-methylthiopropylamino)ethanol] | 3.6 ± 0.3 | 109 ± 4 | 0.8 ± 0.2 | 12.7 ± 3.6 | 89 ± 7 | 109 ± 4 | 3.6 ± 0.2 | – | – | – | shorter than for both isoproterenol and arbutamine; also recorded: substantially shorter T50 than isoproterenol and arbutamine | 3.6
4.8 ± 0.7 | > 10000 | 124 ± 13.6 | CCSCCCNC[C@H](O)c1ccc(O)c(O)c1 [Example 10, 1-(R)-(3,4-dihydroxyphenyl)-2-(3-ethylthiopropylamino)ethanol] | – | – | – | – | – | – | – | – | – | – | – | –
0.6 ± 0.3 | 20900 ± 9850 | 4.6 ± 0.2 | CSCCCC(C)NC[C@H](O)c1ccc(O)c(O)c1 (stereo partly drawn) [Example 8, 1-(R)-(3,4-dihydroxyphenyl)-2-(1-methyl-4-methylthiobutylamino)ethanol] | – | – | – | – | – | – | – | – | – | – | – | –
